Experimental data reported in EP4541797A1, “CAMPTOTHECIN DERIVATIVE, METHOD FOR PREPARING SAME, AND USE THEREOF” (Hangzhou Adcoris Biopharma Co., Ltd, priority 2022, dated 2024).
Read-outs that look alike come from different tables or passages of the source.

How the values were obtained:
Assay type in all cases: cell-based
SK-BR-3 cells = test: Inhibitory activity on cancer cell growth (CCK-8, 72 h), SK-BR-3 cells; details: human breast adenocarcinoma cells SK-BR-3, 72 h incubation
Experimental: (§1) Human esophageal cancer cells OE33, human breast adenocarcinoma cells SK-BR-3 and human gastric cancer cells NCI-N87 were cultured in RPMI1640 (Cellmax) supplemented with 10% fetal bovine serum (Cellmax) respectively. Cells in the exponential growth phase were diluted to a concentration of 1×10^5cells/mL by culture medium and added to 96-well cell culture plates at 100µL per well, then incubated overnight in a 37°C incubator with 5% CO2. On the following day, the test compounds and control compounds were diluted to concentrations of 10000 nM, 2000 nM, 400 nM, 80 nM, 16 nM, 3.2 nM, 0.64 nM, and 0.13 nM by culture medium and added to the 96-well cell culture plates at 2µL per well, with three replicate wells for each concentration. Negative control and blank control groups without the addition of compounds were supplemented with 2µL of the dilution liquid per well. After the addition of the compounds, the plates were returned to the 37°C incubator with 5% CO2 to continue incubation for 72 h. After incubation, the cell culture plates were removed, and the culture medium was aspirated using a pipette. Then, 100µL of culture medium containing 10% CCK-8 was added to each well, and the plates were incubated at 37°C for 3 h. After incubation, the plates were removed, kept in the dark, and placed in ELISA plate. Absorbance was measured at 630nm as the reference wavelength and 450nm as the test wavelength. The IC50 values (Tables 1-3) were calculated using the four-parameter logistic regression method in GraphPad, based on the absorbance values. SN38 (7-ethyl-10-hydroxycamptothecin) and 10CPT (10-hydroxycamptothecin) were used as control compounds. For the IC50 values, wherein "++++" indicates an IC50 < 50 nM; "+++" indicates an IC50 between 50 nM and 100 nM; "++" indicates an IC50 between 100 nM and 500 nM; and "+" indicates an IC50 > 500 nM. Table 1: Inhibitory activity of compounds to inhibit the growth of OE33 cells

OE33 cells = test: Inhibitory activity on cancer cell growth (CCK-8, 72 h), OE33 cells; details: human esophageal cancer cells OE33, 72 h incubation
Experimental: as §1

NCI-N87 cells = test: Inhibitory activity on cancer cell growth (CCK-8, 72 h), NCI-N87 cells; details: Homo sapiens, NCI-N87, 72 h, human gastric cancer cells NCI-N87, 72 h incubation
Experimental: as §1

[1] = Homo sapiens, SK-BR-3, 72 h, bound stated, read-out: IC50
[2] = Homo sapiens, SK-BR-3, 72 h, read-out: IC50
[3] = Homo sapiens, OE33, 72 h, numeric value or bound, read-out: IC50
[4] = Homo sapiens, OE33, 72 h, read-out: IC50

| SMILES | IC50 (SK-BR-3 cells; [2]) | IC50 (OE33 cells; [4]) | IC50 (NCI-N87 cells; read-out: IC50) | IC50 (SK-BR-3 cells; Homo sapiens, SK-BR-3, 72 h) | IC50 (OE33 cells; Homo sapiens, OE33, 72 h) | further results |
| --- | --- | --- | --- | --- | --- | --- |
| CC[C@@]1(O)C(=O)OCc2c1cc1n(c2=O)Cc2cc3c(CN(C)C4CC4)c(O)ccc3nc2-1 [Compound 17, 9-(N-methyl-N-cyclopropylamine)methyl-10-hydroxycamptothecin] | 50 to 100 nM | 50 to 100 nM | < 50 nM | – | – | IC50 (SK-BR-3 cells; [1]): < 100 nM; IC50 (OE33 cells; [3]): < 100 nM; IC50 (NCI-N87 cells; bound stated, read-out: IC50): < 100 nM |
| CCN(C)Cc1c(O)ccc2nc3c(cc12)Cn1c-3cc2c(c1=O)COC(=O)[C@]2(O)CC [Compound 19, 9-(N-methylethylamine)methyl-10-hydroxycamptothecin] | – | – | – | 50 to 100 nM | 50 to 100 nM | IC50 (SK-BR-3 cells; Homo sapiens, SK-BR-3, 72 h, bound stated): < 100 nM; IC50 (OE33 cells; Homo sapiens, OE33, 72 h, numeric value or bound): < 100 nM; IC50 (NCI-N87 cells): < 50 nM; IC50 (NCI-N87 cells; bound stated): < 100 nM |
| CC[C@@]1(O)C(=O)OCc2c1cc1n(c2=O)Cc2cc3c(CN(C)C(C)C)c(O)ccc3nc2-1 [Compound 10, 9-(N-methyl-N-isopropylamino)methyl-10-hydroxycamptothecin] | 50 to 100 nM | 50 to 100 nM | < 50 nM | – | – | IC50 (SK-BR-3 cells; [1]): < 100 nM; IC50 (OE33 cells; [3]): < 100 nM; IC50 (NCI-N87 cells; bound stated, read-out: IC50): < 100 nM |
| CC[C@@]1(O)C(=O)OCc2c1cc1n(c2=O)Cc2cc3c(CN4CCN(C(=O)OC)CC4)c(O)ccc3nc2-1 [Compound 9, 9-(1-(4-methoxycarbonylpiperazine))methyl-10-hydroxycamptothecin] | 50 to 100 nM | 100 to 500 nM | < 50 nM | – | – | – |
| CC[C@@]1(O)C(=O)OCc2c1cc1n(c2=O)Cc2cc3c(CN(C)CCO)c(O)ccc3nc2-1 [Compound 12, 9-(N-methylhydroxyethylamino)methyl-10-hydroxycamptothecin] | – | – | – | 100 to 500 nM | 100 to 500 nM | – |
| CC[C@@]1(O)C(=O)OCc2c1cc1n(c2=O)Cc2cc3c(CNC(C)C)c(O)ccc3nc2-1 [Compound 21, 9-(isopropylamine)methyl-10-hydroxycamptothecin] | 100 to 500 nM | 100 to 500 nM | – | – | – | – |
| CCc1c2c(nc3ccc(O)cc13)-c1cc3c(c(=O)n1C2)COC(=O)[C@]3(O)CC [SN38, 7-ethyl-10-hydroxycamptothecin, reference compound] | – | – | – | – | – | IC50 (SK-BR-3 cells; read-out: IC50): < 50 nM; IC50 (OE33 cells; read-out: IC50): < 50 nM |
| CC[C@@]1(O)C(=O)OCc2c1cc1n(c2=O)Cc2cc3c(CN4CCC(C(N)=O)CC4)c(O)ccc3nc2-1 [Compound 8] | – | – | – | 100 to 500 nM | 100 to 500 nM | – |
